The molecules below were run against T1, Solute carrier family 12 member 5 (Homo sapiens, UniProt Q9H2X9) (assay: modulation of KCC2 K-Cl transport – cell-based, assay 2, dose response (AID 1723)). Conditions: not given.
T1 sequence (Q9H2X9 whole entry): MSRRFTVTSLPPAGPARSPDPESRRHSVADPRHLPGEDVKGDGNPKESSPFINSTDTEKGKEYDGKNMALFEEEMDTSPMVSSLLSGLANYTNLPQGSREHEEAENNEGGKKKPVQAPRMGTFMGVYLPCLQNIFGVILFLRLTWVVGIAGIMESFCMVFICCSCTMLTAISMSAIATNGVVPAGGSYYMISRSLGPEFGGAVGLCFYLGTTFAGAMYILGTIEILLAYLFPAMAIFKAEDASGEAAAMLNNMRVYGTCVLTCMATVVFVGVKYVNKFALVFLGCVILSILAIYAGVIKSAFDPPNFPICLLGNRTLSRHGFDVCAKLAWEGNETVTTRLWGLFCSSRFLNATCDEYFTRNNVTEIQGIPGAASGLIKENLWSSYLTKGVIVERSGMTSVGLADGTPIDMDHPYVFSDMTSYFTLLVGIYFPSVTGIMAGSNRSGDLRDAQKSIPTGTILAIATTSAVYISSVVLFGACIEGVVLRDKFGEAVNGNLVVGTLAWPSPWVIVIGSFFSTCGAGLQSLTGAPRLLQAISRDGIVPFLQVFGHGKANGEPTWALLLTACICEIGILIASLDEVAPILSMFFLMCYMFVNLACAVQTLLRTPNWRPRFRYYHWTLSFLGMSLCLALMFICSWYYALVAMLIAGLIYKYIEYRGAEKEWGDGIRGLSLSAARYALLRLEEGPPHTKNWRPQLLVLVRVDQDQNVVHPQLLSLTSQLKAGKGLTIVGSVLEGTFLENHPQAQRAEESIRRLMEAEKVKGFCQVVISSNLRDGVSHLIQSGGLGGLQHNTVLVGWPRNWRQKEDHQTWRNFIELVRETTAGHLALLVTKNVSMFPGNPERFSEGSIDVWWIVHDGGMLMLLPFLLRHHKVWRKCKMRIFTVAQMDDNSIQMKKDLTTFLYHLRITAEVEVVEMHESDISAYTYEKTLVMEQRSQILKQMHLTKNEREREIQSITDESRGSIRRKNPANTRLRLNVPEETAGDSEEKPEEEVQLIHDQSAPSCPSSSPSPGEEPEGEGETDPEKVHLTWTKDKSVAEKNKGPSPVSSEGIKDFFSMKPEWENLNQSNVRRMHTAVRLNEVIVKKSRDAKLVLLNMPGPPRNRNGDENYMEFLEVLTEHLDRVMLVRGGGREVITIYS

SMILES | EC50 [µM]
Cc1[nH]n2c(=O)cc(C(C)C)nc2c1-c1ccccc1 | 16.1
S=c1nc(-c2ccc3c(c2)CCO3)cc[nH]1 | 11.2
S=C(NCCc1ccccc1)NN=Cc1cccc(Cl)c1Cl [1-[(2,3-dichlorobenzylidene)amino]-3-phenethyl-thiourea] | 14.9
Fc1cccc(F)c1C=NNC(=S)Nc1cccnc1 [1-[(2,6-difluorobenzylidene)amino]-3-(3-pyridyl)thiourea] | 25.4
O=C(NC(=S)Nc1nc(-c2cccc([N+](=O)[O-])c2)cs1)c1ccccc1Cl [2-chloranyl-N-[[4-(3-nitrophenyl)-1,3-thiazol-2-yl]carbamothioyl]benzamide] | 74
CCOc1[nH]n(-c2ccccc2)c(=O)c1C=Nc1ccc(F)cc1F [(4E)-4-[[[2,4-bis(fluoranyl)phenyl]amino]methylidene]-5-ethoxy-2-phenyl-pyrazol-3-one] | 976
Oc1ccccc1CN=Nc1nc2ccccc2o1 [(6E)-6-[(1,3-benzoxazol-2-ylhydrazo)methylidene]-1-cyclohexa-2,4-dienone] | 49
Cc1cccc(N2CCN(C(=O)CCCn3c(=S)[nH]c4cc5c(cc4c3=O)OCO5)CC2)c1C [MLS000095366] | 9.51
CC(C)c1ccc(OCC(=O)NNC(=O)c2cnccn2)cc1 [MLS000332605] | 17
O=[N+]([O-])c1ccccc1C=C[CH+][N-]n1c(-c2ccc(Cl)cc2)n[nH]c1=S [MLS000555506] | 148
O=C(C=Cc1ccccc1)CC(=O)c1ccccc1O [MLS000627068] | 23.6
COc1cc(NC(=S)NC(=O)c2ccco2)ccc1NC(=O)C(C)C [MLS000672338] | 12
O=c1c2ccccc2[nH]c(=S)n1CCN1CCC(=C(c2ccc(F)cc2)c2ccc(F)cc2)CC1 [SMR000058550] | 8.8

Results, then the molecule that gave them:

EC50 [µM] | SMILES
8.04 | O=C1OC(c2ccc(O)cc2)(c2ccc(O)cc2)c2ccccc21
5.71 | NC(=S)NN=C1C(=O)N(Cc2ccc(F)cc2)c2ccccc21 [1-[(Z)-[1-[(4-fluorophenyl)methyl]-2-oxidanylidene-indol-3-ylidene]amino]thiourea]
2.46 | COC(=O)c1sccc1NC(=S)OC [3-(methoxycarbothioylamino)thiophene-2-carboxylic acid methyl ester]
1.42 | Cc1nn(-c2nc3ccccc3[nH]2)c(N)c1-c1ccccc1 [MLS000063763]
1.33 | CCOc1cccc(C(=O)NC(=S)Nc2cccc(C)c2)c1 [3-ethoxy-N-(m-tolylthiocarbamoyl)benzamide]
0.507 | O=[N+]([O-])c1ccc(-c2cn(-c3ccccc3F)c(=S)[nH]2)cc1

Same assay, conditions: inactive by the depositor's call

EC50 [µM] | SMILES
47 | Cc1ccc(-c2ccc(C=NNC(N)=S)o2)cc1 [1-[[5-(4-methylphenyl)furan-2-yl]methylideneamino]thiourea]

Source: BindingDB's records for doi:10.7270/Q2QV3JZ2 (Vanderbilt Screening Center for GPCRs, Ion Channels and …, 2009)
